According to patent US20070037883A1, “Therapeutic compositions” (priority 2003, published 2007):
Entries after “also recorded” stand apart in the source; their conditions may differ.

Columns and labels:
[1] = test system: rat basilar artery; test: Acetylcholine-induced dilator responses of the rat basilar artery in vivo after subarachnoid haemorrhage; details: suramin 300 mg/kg s.c. over 7 days, 2 days after SAH, FIG. 14
Procedure: Subarachnoid hemorrhage: On Day 0, rats are briefly anaesthetized (pentobarbital 50 mg/kg ip) and an osmotic minipump containing either saline or suramin is implanted subcutaneously. The dose rate of suramin is 300 mg/kg per 7 days. On Day 5, rats are again anaesthetized and 0.3 ml of blood is withdrawn from a femoral artery and injected into the cerebrospinal fluid around the ventral surface of the brain via the cisterna magna. In some control rats, saline is injected into the cerebrospinal fluid instead of arterial blood. The rat is allowed to recover for a further 2 days, and is then again anaesthetized on Day 7 for study.
Measurement of cerebral artery responses in vivo: Rats are anaesthetized with pentbarbital (50 mg/kg ip) and anaesthesia is maintained with supplemental pentobarbital (10-20 mg/kg per h iv). […] Basilar artery diameter is continuously measured using a computer-based image tracking device. The endothelium-dependent vasodilator acetylcholine is superfused over the basilar artery at a steady concentration of 1 micromolar for 3-5 minutes, and the increase in diameter is measured. The concentration of acetylcholine is then increased to 10, and then 100 micromolar in a similar manner and increases in diameter recorded. […] Responses to acetylcholine are then expressed as a percent of this maximum response. […]

[2] = test system: atherosclerotic lesion formation in ApoE−/− mice; test: Atherosclerotic lesion formation in aortas of fat-fed ApoE mutant mice; assay type: in vivo, mouse; details: high-fat diet, weekly s.c. suramin for 4 months, vs saline
Procedure: ApoE^−/− mice: Whole aortas are isolated and cut open via an incision along the ventral wall [Jiang et al., 2001, supra]. Tissues are rinsed with 60% v/v isopropanol and stained with oil red O (0.5%) for 10 minutes at room temperature. After staining, tissues are rinsed in 60% v/v sopropanol and preserved in 10% v/v neutral buffered formalin. The en face surface of the aorta is then imaged and lesion area (red-stained) quantified using MCID imaging analysis software.
Twelve-week-old ApoE mutant mice were fed a high fat diet for a further 4 months. During this 4 month period, the mice were given weekly subcutaneous injections of saline or suramin. Specifically, mice were initially dosed with two weekly injections of 300 mg/kg suramin. Four weeks later a 25 mg/kg dose of suramin was administered, and then weekly doses of 15 mg/kg suramin were administered for a further 11 weeks. At the end of the treatment period, mice were killed by anaesthetic overdose and the aorta was removed, cleaned of adherent fat on the adventitial surface, and then cut longitudinally along the entire length. […] The en face surface of the aorta was then imaged and lesion area (red-stained) quantified and expressed as a percent of total luminal surface area for each of: total aorta, thoracic aorta, abdominal aorta, and aortic arch. […]

[3] = target: T1, gp91phox-containing NADPH-oxidase in the mouse macrophage cell line J774 (Mus musculus, UniProt Q61093); test: NADPH oxidase activity in intact J774 mouse macrophages; assay type: cell-based; details: FIG. 2b
T1 construct: endogenous in cells; host or cells: J774 mouse macrophage cell line (intact cells)
T1 sequence (Q61093 2-570 limits assumed): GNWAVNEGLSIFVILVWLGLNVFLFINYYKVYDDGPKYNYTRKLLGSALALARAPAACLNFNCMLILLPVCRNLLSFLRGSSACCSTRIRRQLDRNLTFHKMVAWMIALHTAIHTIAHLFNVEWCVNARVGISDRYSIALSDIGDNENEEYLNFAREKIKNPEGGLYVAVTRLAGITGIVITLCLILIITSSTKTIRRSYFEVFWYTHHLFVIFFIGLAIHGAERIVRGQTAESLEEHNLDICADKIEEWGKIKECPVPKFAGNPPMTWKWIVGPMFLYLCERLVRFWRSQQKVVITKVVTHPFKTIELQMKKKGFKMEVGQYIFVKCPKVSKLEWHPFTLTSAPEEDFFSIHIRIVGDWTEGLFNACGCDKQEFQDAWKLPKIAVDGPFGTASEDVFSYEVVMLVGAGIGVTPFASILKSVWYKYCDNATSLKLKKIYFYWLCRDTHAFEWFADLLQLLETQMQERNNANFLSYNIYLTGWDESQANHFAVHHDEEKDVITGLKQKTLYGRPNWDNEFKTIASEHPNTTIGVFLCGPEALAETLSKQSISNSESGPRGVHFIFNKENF
T1 sequence (Q61462 1-192 partner): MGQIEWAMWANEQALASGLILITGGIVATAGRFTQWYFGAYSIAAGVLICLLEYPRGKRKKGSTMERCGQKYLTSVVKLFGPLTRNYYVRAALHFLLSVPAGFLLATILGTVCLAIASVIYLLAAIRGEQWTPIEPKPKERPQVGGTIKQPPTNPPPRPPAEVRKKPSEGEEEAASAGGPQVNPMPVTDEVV

Compound: Cc1ccc(C(=O)Nc2ccc(S(=O)(=O)O)c3cc(S(=O)(=O)O)cc(S(=O)(=O)O)c23)cc1NC(=O)c1cccc(NC(=O)Nc2cccc(C(=O)Nc3cc(C(=O)Nc4ccc(S(=O)(=O)O)c5cc(S(=O)(=O)O)cc(S(=O)(=O)O)c45)ccc3C)c2)c1 [suramin]
- response of basilar artery diameter to acetylcholine in vivo after SAH [1]: not impaired; also recorded: prevents any significant reduction
- atherosclerotic lesion area: total aorta, thoracic aorta, abdominal aorta ([2]; FIG. 12): markedly smaller lesion areas; also recorded: smaller lesion area
- lesion size in the aortic arch ([2]; FIG. 12b): no effect
- effect on gp91phox-containing NADPH-oxidase in J774 macrophages / phagocytic cells [3]: does not inhibit; also recorded: ineffective
- effect on gp91phox-containing NADPH-oxidase in J774 macrophages / phagocytic cells ([3]; listed as Suramin): little effect
